Test results published in US20130230511A1, “BIOMARKERS FOR RESPONSE TO TYROSINE KINASE PATHWAY INHIBITORS IN CANCER” (BOARD OF REGENTS, THE UNIVERSITY OF TEXAS SYSTEM, priority 2012, published 2013).

How the values were obtained:
[1] = tested on: HIF-1α-regulated proteins (EZH2, Met, phosphorylated Met); assay: Changes in HIF-1α-regulated proteins in VEGFR amplified cell lines; type: cell-based; conditions: H23 and Calu1 cells (VEGFR CNGs)
Method: Two VEGFR amplified cell lines, H23 and Calu1, were treated with the VEGFR pathway inhibitor bevacizumab and evaluated for changes in proteins regulated by HIF-1α.
In addition, two VEGFR amplified cell lines, H23 and Calu1, were treated with the VEGFR pathway inhibitor bevacizumab and changes in proteins regulated by HIF-1α were evaluated.

HIF-1α = conditions: H23 cells (KDR CNG+), ELISA
Method: For HIF-1 expression analysis, the cells were serum-starved for 24 h and stimulated with 50 ng/mL VEGF-A (R&D Systems, MN, USA). Cells were incubated in normoxia and protein lysates were collected after 8 h. HIF-1α ELISA (R&D Systems, MN, USA) was performed according to the manufacturer's instructions.

H23 cells = conditions: which harbor VEGFR (KDR) CNGs
NSCLC cell line H23 = assay: MTS assay of in vitro resistance to cisplatin and carboplatin, with KDR siRNA knockdown; type: cell-based; conditions: for decrease in IC50 caused by knockdown of KDR: H23 cells, siKDR knockdown versus untransfected, P<0.05; for IC50: MTS assay, 72 h drug exposure
Method: Cisplatin and carboplatin sensitivity was determined by MTS (3-(4,5-dimethylthiazol-2-yl)-5-(3-carboxymethoxyphenyl)-2-(4-sulfophenyl)-2H-tetrazolium, inner salt) assay for each cell line and the concentration required for 50% growth inhibition (IC50) was determined.
NSCLC cells were transfected with siRNA targeting KDR and control siRNA (OriGene Technology, Md., USA) at a final concentration of 10 nM using Lipofectamine RNAiMAX (Invitrogen, CA, USA) according to the manufacturer's instructions. Medium was replaced after 24 h. To verify the knockdown efficiency, mRNA and protein of transfected cells were collected for real-time RT-PCR and Western blot analyses.
The assessment of in vitro resistance to cisplatin and carboplatin was determined by the MTS assay. NSCLC cell lines were seeded in octuplicate at a density of 2,000 per well in 96-well plates. The following day, cells were treated with cisplatin and carboplatin at various concentrations ranging from 0 to 120 μmol/L for cisplatin and 0 to 200 μmol/L for carboplatin. After 72 h of drug exposure, 20 μL of MTS solution was added per well. Cells were incubated for 1-4 hours at 37° C. and read at a wavelength of 490 nm.
To investigate the role of KDR CNG and VEGFR-2 overexpression in resistance to both cisplatin and carboplatin, siRNA was utilized to knockdown KDR expression in H23 and H461 NSCLC cell lines, which contain 6-9 KDR gene copies. […] To evaluate the effect of KDR overexpression on sensitivity to cisplatin and carboplatin, the expression of KDR was inhibited by transfecting H23 and H461 cells with control siRNA or siRNA targeting KDR and then treating the cells with increasing concentrations of the chemotherapy drugs. Cell viability was evaluated by MTS assay.

[2] = untransfected (non-transfected) H23 cells

Compound | decrease in IC50 caused by knockdown of KDR (NSCLC cell line H23) [fold] | IC50 (NSCLC cell line H23; siKDR knockdown H23 cells) [µM] | IC50 (NSCLC cell line H23; [2]) [µM] | also measured
bevacizumab |  |  |  | EZH2 protein [1]: decreased; Met protein [1]: decreased; phosphorylated Met [1]: decreased
Cc1ccc(NC(=O)c2ccc(CN3CCN(C)CC3)cc2)cc1Nc1nccc(-c2cccnc2)n1 [imatinib] |  |  |  | HIF-1α levels (HIF-1α): did not affect; cell migration (H23 cells): does not inhibit cellular migration
N.N.[Cl][Pt][Cl] [cisplatin] | 1.9 | 53 | 97.9 | 
N.N.O=C([O-])C1(C(=O)[O-])CCC1.[Pt+2] [carboplatin] | 3.5 | 27.9 | 97 | 
